Data taken from US10065950B2, “Substituted thiazoles as HIV integrase inhibitors” (Japan Tobacco Inc., priority 2010, dated 2018).

These molecules were tested against HIV-1 pNL4-3 integrase (Human immunodeficiency virus type 1 group M subtype B (isolate NY5) (HIV-1), UniProt P12497) (assay: Determination of enzyme (HIV integrase) inhibitory activity). Settings: calculated from inhibition rate (fluorescence).
Format: biochemical
Procedure, shortened: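 Full-length pNL4-3 integrase from E. coli (0.75 μM stock) reacted 60 min at 37° C with compound and biotinylated donor DNA bound to streptavidin plates, in MOPS buffer with 5 mM MgCl2 and 10% DMSO. Digoxigenin-labelled target DNA (25 nM stock) then added for 20 min; strand transfer read by peroxidase anti-digoxigenin fluorescence (Ex 325/Em 420 nm).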
Work on `COCCOC[C@@]1(C(=O)N(C)C)CN(C(C)C)C(=O)c2c(O)c(=O)c(-c3nnc(Cc4ccc(F)cc4)s3)cn21` [Example 391] yielded an IC50 of 24 nM. For `CC[C@]1(C(=O)N2CCC2)CN(C(C)C)C(=O)c2c(O)c(=O)c(-c3nnc(Cc4ccc(F)cc4)s3)cn21` [Example 392], the IC50 was 11 nM. `CCNC(=O)[C@]1(COC)CN(C(C)C)C(=O)c2c(O)c(=O)c(-c3ncc(Cc4ccc(F)cc4)s3)cn21` [Example 393] showed an IC50 of 15 nM. `CCNC(=O)[C@]1(COCCOC)CN(C(C)C)C(=O)c2c(O)c(=O)c(-c3ncc(Cc4ccc(F)cc4)s3)cn21` [Example 394] was tested, and the IC50 was 14 nM. `CCN1C(=O)c2c(O)c(=O)c(-c3nnc(Cc4ccc(F)cc4)s3)cn2C[C@@H]1[C@@H](C)OC` [Example 395] gave an IC50 of 10 nM. In the case of `CCN(C)C(=O)[C@]1(COC)CN(C(C)C)C(=O)c2c(O)c(=O)c(-c3nnc(Cc4ccc(F)cc4)s3)cn21` [Example 396], the IC50 is reported as 15 nM. In the case of `CCN(C)C(=O)[C@]1(COCCOC)CN(C(C)C)C(=O)c2c(O)c(=O)c(-c3nnc(Cc4ccc(F)cc4)s3)cn21` [Example 397], the IC50 is reported as 19 nM.
